Results reported in patent US20230263742A1, “A LIPID” (Stemirna Therapeutics Co., Ltd., priority 2021, published 2023).

test system: Balb/C mice; assay: Luc expression in injection site and liver site after intramuscular administration (Example 5); format: in vivo; conditions: 5 μg Luc mRNA-LNP (DSPC) intramuscularly, Balb/C mice n=3, 6 h
Protocol: Further bioluminescence studies were performed to investigate the delivery efficiency of nanoparticle compositions including various lipid compounds according to the present invention. The formulations containing reference cationic lipid M62, M63, M118, and M119 (corresponding to Compound 62, 63, 118, and 119 in PCT/US2018/022717 (WO2018/170306), respectively) were evaluated for comparison. Nanoparticle compositions including DSPC as an optimized phospholipid, cholesterol as a structural lipid, PEG-DMG as a PEG lipid, an RNA, and a compound above mentioned were prepared according to or via methods similar to those described in Examples 1 and 2. The ratios of the lipids were 50:10:38.5:1.5 mol % for the lipid of the present invention: DSPC: cholesterol: PEG-DMG. 5 μg of LNP solution containing luciferase mRNA was administered intramuscularly to Balb/C mice (n=3). 6 hours after administration, mice were injected intraperitoneally with 0.15 mg/kg of D-luciferin substrate. Within 15 minutes after the injection of the substrate, the fluorescence signal intensity in injection site and liver site were tested under a small animal in vivo imaging instrument. Tables 3-4 summarize the fluorescence signal intensity of the nanoparticle compositions including present invention lipids and the reference compounds in injection site and liver site.

Compound	Luc expression in injection site, I.M. injection site, 6 h (ratio relative to SW-II-134-3 set as 1)	Luc expression in liver site, Liver site upon I.M., 6 h (ratio relative to SW-II-137-1 set as 1)
CCCCCCCCC(CCCCCCCC)OC(=O)CCCCCCCN(CCO)CCCCCCC(=O)OCc1ccc(CCCCCC)cc1 [SW-II-127]	1.743	–
CCCCCCCCC(CCCCCCCC)OC(=O)CCCCCCCN(CCO)CCCCCCCC(=O)OCCCCc1ccc(CCCCC)cc1 [SW-II-138-2]	2.826	3.318
CCCCCCCCC(CCCCCCCC)OC(=O)CCCCCCCN(CCO)CCCCCCCC(=O)OCCc1ccccc1CCCCCC [SW-II-140-1]	2.450	3.224
CCCCCCCCC(CCCCCCCC)OC(=O)CCCCCCCN(CCO)CCCCCCCC(=O)OCCCc1ccc(CCCCCC)cc1 [SW-II-137-3]	1.358	1.981
CCCCCCCCC(CCCCCCCC)OC(=O)CCCCCCCN(CCO)CCCCCCCC(=O)OCCc1cccc(CCCC)c1 [SW-II-139-2]	1.440	1.355
CCCCCCCCC(CCCCCCCC)OC(=O)CCCCCCCN(CCO)CCCCCCCC(=O)OCc1cccc(CCCCCC)c1 [SW-II-122]	1.321	–
CCCCCCCCCOC(=O)CCCCCCCN(CCO)CCCCCCCC(=O)OCCCCc1ccc(CCCCCC)c(CCCCCC)c1 [SW-II-136-2]	1.110	1.131
CCCCCCCCC(CCCCCCCC)OC(=O)CCCCCCCN(CCO)CCCCCCCC(=O)OCCc1ccccc1CCCC [SW-II-140-2]	2.257	6.991
CCCCCCCCCOC(=O)CCCCCCCN(CCO)CCCCCCCC(=O)OCCc1ccc(CCCC)c(CCCC)c1 [SW-II-134-3]	1.000	–
CCCCCCCCCOC(=O)CCCCCCCN(CCO)CCCCCCCC(=O)OCCc1ccc(CCCCCC)c(CCCCCC)c1 [SW-II-134-1]	1.899	–
CCCCCCCCCOC(=O)CCCCCCCN(CCO)CCCCCCCC(=O)OCCc1ccc(CCCCCCCC)c(CCCCCCCC)c1 [SW-II-134-2]	1.734	–
CCCCCCCCCOC(=O)CCCCCCCN(CCO)CCCCCCCC(=O)OCCCc1ccc(CCCCCCC)c(CCCCCCC)c1 [SW-II-135-2]	1.028	–
CCCCCCCCCOC(=O)CCCCCCCN(CCO)CCCCCCCC(=O)OCCCc1ccc(CCCCC)c(CCCCC)c1 [SW-II-135-1]	1.771	–
CCCCCCCCC(CCCCCCCC)OC(=O)CCCCCCCN(CCO)CCCCCCCC(=O)OCCCc1ccc(CCCC)cc1 [SW-II-137-1]	–	1.000
CCCCCCCCC(CCCCCCCC)OC(=O)CCCCCCCN(CCO)CCCCCCCC(=O)OCCCCc1ccc(CCCC)cc1 [SW-II-138-1]	1.972	1.430
CCCCCCCCC(CCCCCCCC)OC(=O)CCCCCCCN(CCO)CCCCCCCC(=O)OCCCc1ccc(CCCCC)cc1 [SW-II-137-2]	–	1.206
CCCCCCCCC(CCCCCCCC)OC(=O)CCCCCCCN(CCO)CCCCCCCC(=O)OCCCCc1ccc(CCCCCC)cc1 [SW-II-138-3]	1.294	2.850
CCCCCCCCC(CCCCCCCC)OC(=O)CCCCCCCN(CCO)CCCCCCCC(=O)OCCc1cccc(CCCCCC)c1 [SW-II-139-1]	1.807	2.355
CCCCCCCCCOC(=O)CCCCCCCN(CCO)CCCCCCCC(=O)OCc1ccc(CCCCCC)c(CCCCCC)c1 [SW-II-115]	1.046	–
